Source: article PMC12064607 (Clinical Pharmacokinetics, 2025)
Like-named read-outs stand apart in the source and are kept apart here.

Assays:
SARS-CoV-2 variants [1] = test: microbe, parasite or virus in culture
SARS-CoV-2 variants [2] = details: cited from earlier work
[3] = Severe acute respiratory syndrome coronavirus 2, read-out: highest EC50 reported in the literature, corrected for plasma protein binding
[4] = Severe acute respiratory syndrome coronavirus 2, read-out: highest EC90 reported in the literature, corrected for plasma protein binding
[5] = Severe acute respiratory syndrome coronavirus 2, read-out: lowest EC50 reported in the literature, corrected for plasma protein binding
[6] = Severe acute respiratory syndrome coronavirus 2, read-out: lowest EC90 reported in the literature, corrected for plasma protein binding

SMILES	EC50 (SARS-CoV-2 variants [1]; [3])	EC90 (SARS-CoV-2 variants [1]; [4])	EC50 (SARS-CoV-2 variants [1]; [5])	EC90 (SARS-CoV-2 variants [1]; [6])	EC50 (SARS-CoV-2 variants [2])	EC90 (SARS-CoV-2 variants [2])
N#C[C@@]1(c2ccc3c(N)ncnn23)O[C@H](CO)[C@@H](O)[C@H]1O [GS-441524]	5.71 µM	3.98 µM	0.08 µM	0.72 µM	0.08 to 5.6 µM	0.71 to 3.9 µM
CCC(CC)COC(=O)[C@H](C)N[P@](=O)(OC[C@H]1O[C@@](C#N)(c2ccc3c(N)ncnn23)[C@H](O)[C@@H]1O)Oc1ccccc1 [Remdesivir, reference compound]	14.2 µM	25.8 µM	0.008 µM	0.18 µM	0.001 to 1.7 µM	0.022 to 3.1 µM
